According to US20240122985A1, “ANTIBODIES, COMBINATIONS COMPRISING ANTIBODIES, BIOMARKERS, USES & METHODS” (KYMAB LIMITED, priority 2016, published 2024):
Values joined by “and” are separate entries in the source; they are usually repeats but may differ in a detail not shown here. Equal values may be shown once.

B1: 2D10 IgG4PE: fully human anti-human OX40L monoclonal antibody, human IgG4-PE; VH Seq ID No:34, VL Seq ID No:48; 2D10-1 to -4 are stable pools (antibody, V domains shown)
VH: EVQLVESGGGLVQPGGSLRLSCAASGFTFSNYAMNWVRQAPGKGLEWVSTISGSGGATRYADSVKGRFTISRDNSRNTVYLQMNSLRVEDTAVFYCTKDRLIMATVRGPYYYGMDVWGQGTTVTVSS
VL: DIQMTQSPSSLSASVGDRVTITCRASQSISSYLNWYQQKPGKAPNLLIYAASSLQSGVPSRFSGSGSETDFTLTISSLQPEDFATYYCQQSHSVSFTFGPGTKVDIK
modifications: human IgG4-PE constant regions; 02D10 - VH Amino Acid Sequence; 02D10 - VL Amino Acid Sequence

Columns and labels:
[1] = tested on: peripheral blood and tissue T-cells; assay: Flow cytometry of T-cell subsets after HCT (Tscm, TN, TCM, TEM, Ki-67, OX40, Treg, cytokines); type: in vivo, Rhesus macaque
Protocol: Longitudinal peripheral blood samples were collected before and after haematopoietic stem cell transplant and at necropsy for flow cytometric analysis of lymphocyte subsets. Lung, liver, colon spleen and lymph node (axillary and inguinal) tissues were collected at necropsy and dissociated or enzymatically digested as appropriate for subsequent analysis of lymphocyte infiltrates by flow cytometry. Samples were analysed by multicolour flow cytometry using a LSRFortessa cell analyser (BD Biosciences) using the following T lymphocyte marker probes: CD3 (APC-Cy7 label; clone SP34-2, BD Biosciences), CD4 (BV786 label; clone L200, BD Biosciences), CD8 (BUV395 label; clone RPA-T 8, BD Bioscences), CD28 (PE-Cy7 label; clone CD28.2, eBioscience), CD95 (BV605 label; clone DX2, Biolegend). Proliferating cell populations were identified using Ki-67 (FITC label, Dako). CD4^+ or CD8^+T-cell subcompartments were labelled as follows: naïve T-cells (CD28^+/CD95^−), central memory T-cells (CD28^+/CD95^+), effector memory T-cells (CD28−/CD95^+).
Blood was collected into tubes with Sodium EDTA, and then red blood cells were lysed with lysis buffer containing ammonium chloride. Remaining leukocytes were washed with FACS buffer (PBS with 2% FBS) and stained with antibody cocktail (Table 7) for 30 minutes at 4° C. After staining, cells were washed and fixed in 1× BD Stabilising Fixative. Acquisition of flow data was performed on BD LSR Fortessa cytometer. Data were analysed using FloJo. T-cells were defined as CD3^+CD14/CD20-lymphocytes.
Peripheral blood mononuclear cells were isolated at different time points by Ficoll-Paque gradient and then were stained for cell surface markers (CD3, CD4, CD8) followed by fixation/permeabilization (using BD Cytofix/Cytoperm kit) and intracellular staining for Ki-67. Ki-67 expression in NHP peripheral blood CD4^+ (FIG. 8A) and CD8^+ (FIG. 8B) was measured. T-cells before (pre-HCT) and following allogeneic HCT in recipients being untreated (No Rx) or treated with OX40L antibody. Plots show Ki-67 expression in NHP peripheral blood bulk CD4^+ (FIG. 8C) and CD8^+ (FIG. 8D) T-cells before (pre-HCT) and following allogeneic HCT in recipients treated with rapamycin and with a combination of rapamycin and anti-OX40L antibody. Statistical analysis was performed using Holm-Sidak multiple-comparison post-test. *p<0.05.
Peripheral blood mononuclear cells were isolated prior (pre-HCT) and during terminal analysis following allogeneic HCT without immunoprophylaxis (No Rx), or treatment with rapamycin, or treatment with anti-OX40L antibody, or treatment with a combination of anti-OX40L antibody and rapamycin by Ficoll-Paque gradient and then were stained for cell surface markers (CD3, CD4, CD8, CD25, CD127 and OX40) followed by fixation/permeabilization (using BioLegend FoxP3 kit) and intracellular staining for FoxP3.
Animals were kept on the indicated immunoprophylaxis regimens. Time-points with n<3 were censored. Multiple t-test with Holm-Sidak correction was performed between the groups.
Whole blood cells were stained for CD3, CD4, CD8, CD14, CD20, CD45RA and CCR7 and then analysed by FACS. T-cells were defined as CD3^+CD14^−CD20^− lymphocytes and divided into CD4^+ and CD8^+ T-cell subsets. Memory T-cells (Tmem) were defined as CD45RA- and effector Tcells (Teff) as CD45RA+CCR7^− Tcells in both CD4 and CD8 gates. Combined populations of memory+effector CD4^+(FIG. 10A) and CD8^+(FIG. 10B) T-cells were longitudinally tracked before and at different time point following allogeneic HCT in recipients treated with anti-OX40L antibody, treated with rapamycin, or with a combination of rapamycin and anti-OX40L antibody. […]

[2] = tested on: human T-cells with allogeneic T-cell-depleted cells; assay: Human mixed lymphocyte reaction (CellTrace Violet); type: cell-based; settings: KY1005 150 μg/L, 7 days (FIG. 12H)
Protocol: Human Mixed Lymphocyte Reaction: Human MLRs were performed on unrelated healthy controls. PBMC samples were freshly isolated by Ficoll fractionation, followed by magnetic pan T-cell isolation using the Miltenyi Biotec human pan-T-cell isolation kit. Isolated T-cells were labeled with 2.5 μM CellTrace Violet (Invitrogen) and were co-cultured with irradiated (3500 cGy) on-column T-cell-depleted cell fractions from unrelated allogeneic individuals. MLR cultures were maintained for 7 days at 37° C. in XVivo15 (Lonza) supplemented with 10% FCS, 2 mM glutamine, penicillin-streptomycin and gentamycin and beta-Mercaptoethanol. KY1005 was added to the cultures at day 0 at a dose of 150 μg/L. On Day 7, cells were collected from the cultures, and were stained with antibodies against CD3, CD4, CD8, and then Live/Dead Aqua (Molecular Probes/Invitrogen) was added to exclude dead cells and debris. CellTrace Violet dilution was then measured in CD3^+, Live/Dead Aqua-cells by flow cytometry.

[3] = tested on: Cytomegalovirus (CMV), bacterial and fungal infections; assay: CMV monitoring and infections after transplant; type: in vivo, Rhesus macaque; settings: 2D10 IgG4PE Rhesus GvHD Study, per animal
Protocol: Cytomegalovirus (CMV) monitoring was performed as previously described (Larsen et al, 2010) and is reported as CMV copies/mL of whole blood. Whole blood samples were collected and CMV viral load was measured twice weekly on days 0 to 30 post-HCT, then at least once weekly on days 31 to 60 post-HCT and then at least once every 2 weeks from day 61 until the experimental endpoint. CMV prophylaxis and treatment was performed according to our standard NHP strategy, as previously described (Zheng et al, 2017). Briefly, CMV prophylaxis was provided to all transplant recipients and included weekly Cidofovir, given at a dose of 5 mg/kg, along with renal protection with 3 doses of Probenecid (167 mg PO/dose) given within the first 24 hours after each cidofovir dose. Recipients who reactivated CMV continued cidofovir and were also treated with parenteral gancyclovir, which was given at 5 mg/kg/dose twice daily. Gancyclovir treatment was continued until CMV levels were undetectable for two weeks and then discontinued.

Rhesus monkey OX40L = assay: Surface plasmon resonance, apparent affinity to rhesus OX40L; type: binding, Rhesus (Macaca mulatta); settings: SPR, 25° C.; CNROR = Cannot resolve off-rate
Chain of Rhesus monkey OX40L (as listed by the source): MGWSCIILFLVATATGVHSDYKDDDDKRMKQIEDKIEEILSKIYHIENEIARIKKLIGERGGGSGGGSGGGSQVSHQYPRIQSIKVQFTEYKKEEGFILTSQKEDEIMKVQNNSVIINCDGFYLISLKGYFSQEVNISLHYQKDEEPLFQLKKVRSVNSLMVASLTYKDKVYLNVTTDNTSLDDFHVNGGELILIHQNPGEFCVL
Protocol: SPR analysis was carried out using the ProteOn™ XPR36 Array System (BioRad). Anti-mouse IgG (GE Healthcare BR-1008-38) was immobilised on a GLM biosensor surface using amine coupling, the surface was then blocked using 1 M ethanolamine. Test antibodies were captured on this surface and recombinant hOX40L (human and rhesus) were used at a single concentration of 256 nM, binding sensorgrams were double referenced using a buffer injection (i.e. 0 nM) to remove baseline drift and injection artefacts. Apparent affinities for the OX40L-antibody interaction were determined using the 1:1 model inherent to the ProteOn XPR36 analysis software. The assay was run using HBS-EP (Teknova) as running buffer and carried out at 25° C.

Molecule	frequency of OX40^+ Treg cells ([1]; FIGS. 8O and 8O-1)	relative and absolute numbers of CD4^+ TCM cells ([1]; after HCT, p<0.05)	CD4^+ T-cell production of IFNγ, TNFα or IL-2 ([1]; after transplant (FIG. 8N))	ability of CD4^+ T-cells to express IL17A ([1]; after transplant (FIG. 8N))	proliferation of CD8^+ T-cells ([1]; monotherapy (FIGS. 8F & 8G))	sustained CD4^+ T-cell proliferation, as measured by Ki67 expression ([1]; monotherapy (FIGS. 8F & 8G))	Treg to Tconv ratio ([1]; peripheral blood after HCT (FIG. 11B))	allo-proliferation of human cells in vitro [2]	Ki-67 expression on T-cells / T-cell proliferation ([1]; NHP peripheral blood after allogeneic HCT (FIG. 8))	CD4^+ Tscm expansion ([1]; Rhesus macaque after allogeneic HCT (FIG. 4))	T(eff+mem) cell population ([1]; after allogeneic HCT (FIG. 10))	proportion of Tscm cells compared with the sirolimus and Tac/MTX treatment ([1]; peripheral blood, post-HCT (FIG. 6a, 6b))	evidence of CMV or rhLCV infection [3]	Apparent Affinity RhsOX40L (nM) (Rhesus monkey OX40L)
KY1005: antibody used for GVHD immunoprophylaxis in NHP, measured by antigen (OX40L) capture assay; not tied to 02D10 in this part	does not affect	significant reductions	without affecting	specifically reducing their ability to express IL17A	less effect	significant inhibitory impact	protected against the significant drop	inhibit allo-proliferation of human cells in vitro						
B1									reverses that expression	limited CD4^+ Tscm expansion	does not effectively suppress proliferation of CD8^+T(eff+mem) cells	sustained inhibition	No evidence of CMV or rhLCV infection and No (3×) and followed by autologous repopulation concurrent with evidence of CMV and rhLCV	CNROR
